We go through one molecule from ChEMBL document CHEMBL5550106, “Recent advances in the exploration of oxazolidinone scaffolds from compound development to antibacterial agents and other bioactivities” (Eur J Med Chem, 2024).

As usually defined, the MIC90 is the lowest concentration that inhibits either 90% of growth or 90% of the strains tested, depending on the study.

In brackets after ≈: the same amount, converted by molar mass.

The test has as its system Mycobacterium tuberculosis. The test is described as follows: Antitubercular activity against Multi-drug resistant Mycobacterium tuberculosis assessed as inhibition of bacterial growth incubated for 14 days by microplate alamar blue assay. Type of test: functional. To be noted: 336 h, time 14 day. (The colour change of resazurin is a common sign of viable cells or microbes.)

In the case of `CN1CCN(c2ccc(N3C[C@H](CO)OC3=O)cc2F)C=N1` [DELPAZOLID], the MIC90 stood at 0.5 µg/mL (≈ 1.62 µM).
